Like-named read-outs stand apart in the source and are kept apart here.
Assays:
JH2 domain of human Tyk2 = JH2 domain of human Tyk2 (Homo sapiens (Human), UniProt P29597); assay: JH2 Biochemical Assay (TR-FRET probe displacement); type: binding
Tyk2 = Tyk2 (Homo sapiens (Human), UniProt P29597); assay: pSTAT4 Cell Assay (MSD, NK92 cells); type: cell-based
[1] = TR-FRET probe displacement, JH2 domain
[2] = JH2 domain of human Tyk2, TR-FRET probe displacement
[3] = TR-FRET probe displacement, JH2 domain of human Tyk2

JH2 domain of human Tyk2, sequence (P29597 575-876): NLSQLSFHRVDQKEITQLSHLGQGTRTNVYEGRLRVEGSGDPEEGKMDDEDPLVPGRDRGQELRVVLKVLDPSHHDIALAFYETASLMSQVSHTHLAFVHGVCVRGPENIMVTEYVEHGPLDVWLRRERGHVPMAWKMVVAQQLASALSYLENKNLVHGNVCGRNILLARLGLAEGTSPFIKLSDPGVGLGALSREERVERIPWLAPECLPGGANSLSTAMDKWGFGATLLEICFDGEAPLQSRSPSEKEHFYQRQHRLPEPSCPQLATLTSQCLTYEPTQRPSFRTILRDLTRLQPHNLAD
Tyk2, sequence (P29597 whole entry, the tested form may be a part): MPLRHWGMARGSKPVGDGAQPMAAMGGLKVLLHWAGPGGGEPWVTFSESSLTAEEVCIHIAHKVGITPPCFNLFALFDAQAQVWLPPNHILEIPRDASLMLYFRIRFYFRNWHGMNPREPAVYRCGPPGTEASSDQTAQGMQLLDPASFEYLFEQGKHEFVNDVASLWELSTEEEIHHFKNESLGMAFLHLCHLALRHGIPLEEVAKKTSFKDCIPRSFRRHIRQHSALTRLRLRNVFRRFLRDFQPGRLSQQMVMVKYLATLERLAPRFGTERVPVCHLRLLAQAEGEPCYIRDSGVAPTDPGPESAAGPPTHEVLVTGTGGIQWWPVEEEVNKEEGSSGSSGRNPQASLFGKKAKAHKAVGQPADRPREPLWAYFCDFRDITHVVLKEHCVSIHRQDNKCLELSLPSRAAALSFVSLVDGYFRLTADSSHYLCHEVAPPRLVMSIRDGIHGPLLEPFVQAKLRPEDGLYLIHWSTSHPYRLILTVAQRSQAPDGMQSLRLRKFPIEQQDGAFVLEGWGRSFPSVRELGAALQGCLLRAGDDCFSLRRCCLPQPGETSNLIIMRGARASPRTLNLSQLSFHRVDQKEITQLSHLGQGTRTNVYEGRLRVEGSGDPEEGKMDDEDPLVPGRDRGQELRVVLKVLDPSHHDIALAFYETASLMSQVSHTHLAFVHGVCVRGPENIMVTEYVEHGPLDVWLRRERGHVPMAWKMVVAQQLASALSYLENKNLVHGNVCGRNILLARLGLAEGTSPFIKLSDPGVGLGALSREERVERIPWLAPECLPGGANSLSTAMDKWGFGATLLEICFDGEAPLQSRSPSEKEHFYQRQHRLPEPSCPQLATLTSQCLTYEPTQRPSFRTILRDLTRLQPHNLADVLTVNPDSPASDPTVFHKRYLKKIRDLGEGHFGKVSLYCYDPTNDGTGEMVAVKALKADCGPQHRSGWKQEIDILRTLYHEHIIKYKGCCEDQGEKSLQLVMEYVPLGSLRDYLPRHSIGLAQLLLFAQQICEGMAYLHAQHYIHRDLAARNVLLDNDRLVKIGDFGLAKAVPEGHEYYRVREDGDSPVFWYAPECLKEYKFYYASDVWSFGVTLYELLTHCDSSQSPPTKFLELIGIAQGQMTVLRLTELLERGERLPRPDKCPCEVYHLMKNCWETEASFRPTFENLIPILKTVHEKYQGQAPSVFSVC

Structure (SMILES) | IC50 (JH2 domain of human Tyk2; [1]) [nM] | IC50 (Tyk2) [nM] | IC50 (JH2 domain of human Tyk2; [2]) [nM] | IC50 (Tyk2; MSD) [nM] | IC50 (JH2 domain of human Tyk2; [3]) [nM]
CC(=O)Nc1cc(Nc2ccnc(C(C)(F)F)n2)c(-c2cnc(C#N)cn2)cn1 [Example 850, N-(5-(5-cyanopyrazin-2-yl)-4-((2-(1,1-difluoroethyl)pyrimidin-4-yl)amino)pyridin-2-yl)acetamide] | ≤ 10 | 100 to 1000 | – | – | –
CC(=O)Nc1cc(Nc2cc(C)nc(C(C)(F)F)n2)c(OCC2CN(C)C2)cn1 [Example 506, N-(4-((2-(1,1-difluoroethyl)-6-methylpyrimidin-4-yl)amino)-5-((1-methylazetidin-3-yl)methoxy)pyridin-2-yl)acetamide] | – | – | ≤ 10 | 100 to 1000 | –
CCc1cc(Nc2cc(NC(C)=O)ncc2-c2ccc(COC)cn2)nc(C(C)(F)F)n1 [Example 846, N-(4′-((2-(1,1-difluoroethyl)-6-ethylpyrimidin-4-yl)amino)-5-(methoxymethyl)-[2,3′-bipyridin]-6′-yl)acetamide] | ≤ 10 | ≤ 10 | – | – | –
CC(=O)Nc1cc(Nc2cc(C)nc(C(C)(F)F)n2)c(-c2cn3c(n2)CN(C)CC3)cn1 [Example 239, N-(4-((2-(1,1-difluoroethyl)-6-methylpyrimidin-4-yl)amino)-5-(7-methyl-5,6,7,8-tetrahydroimidazo[1,2-a]pyrazin-2-yl)pyridin-2-yl)acetamide] | – | – | – | ≤ 10 | ≤ 10
COC(C)(C)c1cnc(-c2cnc(NC(C)=O)cc2Nc2ccnc(C(C)(F)F)n2)cn1 [Example 896, N-(4-((2-(1,1-difluoroethyl)pyrimidin-4-yl)amino)-5-(5-(2-methoxypropan-2-yl)pyrazin-2-yl)pyridin-2-yl)acetamide] | ≤ 10 | 10 to 100 | – | – | –
CC(=O)Nc1cc(Nc2cc(C)nc(C(C)(F)F)n2)c(OCc2ccon2)cn1 [Example 495, N-(4-((2-(1,1-difluoroethyl)-6-methylpyrimidin-4-yl)amino)-5-(isoxazol-3-ylmethoxy)pyridin-2-yl)acetamide] | – | – | ≤ 10 | 10 to 100 | –
COc1cnc(NC(C)=O)cc1Nc1ccnc(C2CCOC2)n1 (stereo not shown) [Example 450, N-(5-methoxy-4-((2-(tetrahydrofuran-3-yl)pyrimidin-4-yl)amino)pyridin-2-yl)acetamide] | – | – | 10 to 100 | ≥ 1000 | –
COc1cc(-c2cnc(NC(C)=O)cc2Nc2cccc(C(C)(F)F)n2)ncn1 [Example 162, N-(4-((6-(1,1-difluoroethyl)pyridin-2-yl)amino)-5-(6-methoxypyrimidin-4-yl)pyridin-2-yl)acetamide] | – | – | – | ≤ 10 | ≤ 10
CCOc1cnc(NC(C)=O)cc1Nc1cc(OC2CC(C)C2)nc(C(C)(F)F)n1 (stereo not shown) [Example 464, N-(4-((2-(1,1-difluoroethyl)-6-(3-methylcyclobutoxy)pyrimidin-4-yl)amino)-5-ethoxypyridin-2-yl)acetamide] | – | – | ≤ 10 | ≤ 10 | –
CCOc1cnc(NC(C)=O)cc1Nc1cc(C)cc(C23COC(C2)C3)n1 [Example 95, N-(4-((6-(2-oxabicyclo[2.1.1]hexan-4-yl)-4-methylpyridin-2-yl)amino)-5-ethoxypyridin-2-yl)acetamide] | – | – | – | 100 to 1000 | 10 to 100
COCc1ccc(-c2cnc(NC(C)=O)cc2Nc2cc(C)nc(C3CCOC3)n2)nc1 (stereo not shown) [Example 568, N-(5-(methoxymethyl)-4′-((6-methyl-2-(tetrahydrofuran-3-yl)pyrimidin-4-yl)amino)-[2,3′-bipyridin]-6′-yl)acetamide] | – | – | ≤ 10 | ≤ 10 | –
CC(=O)Nc1cc(Nc2cc(C)nc(C(C)(F)F)n2)c(OCc2nccn2C)cn1 [Example 496, N-(4-((2-(1,1-difluoroethyl)-6-methylpyrimidin-4-yl)amino)-5-((1-methyl-1H-imidazol-2-yl)methoxy)pyridin-2-yl)acetamide] | – | – | 10 to 100 | ≥ 1000 | –
CC(=O)Nc1cc(Nc2cc(C)nc(C(C)(F)F)n2)c(OCc2ccc(C#N)o2)cn1 [Example 333, N-(5-((5-cyanofuran-2-yl)methoxy)-4-((2-(1,1-difluoroethyl)-6-methylpyrimidin-4-yl)amino)pyridin-2-yl)acetamide] | – | – | – | 10 to 100 | ≤ 10
COc1cc(-c2cnc(NC(C)=O)cc2Nc2ccnc(C(C)(F)F)n2)nc(OC)n1 [Example 687, N-(4-((2-(1,1-difluoroethyl)pyrimidin-4-yl)amino)-5-(2,6-dimethoxypyrimidin-4-yl)pyridin-2-yl)acetamide] | – | – | ≤ 10 | 10 to 100 | –
CC(=O)Nc1cc(Nc2ccnc(C(C)(F)F)n2)c(-c2cnc(N3C[C@H]4C[C@@H]3CO4)cn2)cn1 [Example 871, N-(5-(5-((1R,4R)-2-oxa-5-azabicyclo[2.2.1]heptan-5-yl)pyrazin-2-yl)-4-((2-(1,1-difluoroethyl)pyrimidin-4-yl)amino)pyridin-2-yl)acetamide] | ≤ 10 | 10 to 100 | – | – | –
CC(=O)Nc1cc(Nc2cc(C)nc(C34COC(C)(C3)C4)n2)c(-c2ccn(C)n2)cn1 [Example 554, N-(5-(1-methyl-1H-pyrazol-3-yl)-4-((6-methyl-2-(1-methyl-2-oxabicyclo[2.1.1]hexan-4-yl)pyrimidin-4-yl)amino)pyridin-2-yl)acetamide] | – | – | 10 to 100 | ≥ 1000 | –
CCOc1cnc(NC(C)=O)cc1Nc1cc(C(C)(F)F)ccn1 [Example 2, N-(4-((4-(1,1-difluoroethyl)pyridin-2-yl)amino)-5-ethoxypyridin-2-yl)acetamide] | – | – | – | ≥ 1000 | 10 to 100
CC(=O)Nc1cc(Nc2cc(C)nc(C(C)(F)F)n2)c(-c2ccc(C)cn2)cn1 [Example 593, N-(4′-((2-(1,1-difluoroethyl)-6-methylpyrimidin-4-yl)amino)-5-methyl-[2,3′-bipyridin]-6′-yl)acetamide] | – | – | ≤ 10 | ≤ 10 | –
CC(=O)Nc1cc(Nc2cc(C)nc(C(C)(F)F)n2)c(Oc2ccnc(C(F)(F)F)n2)cn1 [Example 359, N-(4-((2-(1,1-difluoroethyl)-6-methylpyrimidin-4-yl)amino)-5-((2-(trifluoromethyl)pyrimidin-4-yl)oxy)pyridin-2-yl)acetamide] | – | – | – | ≥ 1000 | ≥ 1000
CC(=O)Nc1cc(Nc2cccc(C(C)(F)F)n2)c(OCCN2CCCC2)cn1 [Example 64, N-(4-((6-(1,1-difluoroethyl)pyridin-2-yl)amino)-5-(2-(pyrrolidin-1-yl)ethoxy)pyridin-2-yl)acetamide] | – | – | – | 10 to 100 | ≤ 10
COCCOc1cnc(NC(C)=O)cc1Nc1cc(C)cc(C(C)(F)F)n1 [Example 63, N-(4-((6-(1,1-difluoroethyl)-4-methylpyridin-2-yl)amino)-5-(2-methoxyethoxy)pyridin-2-y1)acetamide] | – | – | – | ≤ 10 | ≤ 10
CC(=O)Nc1cc(Nc2ccnc(C(C)(F)F)n2)c(-c2cnn(CCN3CCN(C)CC3)n2)cn1 [Example 779, N-(4-((2-(1,1-difluoroethyl)pyrimidin-4-yl)amino)-5-(2-(2-(4-methylpiperazin-1-yl)ethyl)-2H-1,2,3-triazol-4-yl)pyridin-2-yl)acetamide] | ≤ 10 | 10 to 100 | – | – | –
CC(=O)Nc1cc(Nc2cc(C)nc(C(C)(F)F)n2)c(-c2cnc(CN3CCN(C)CC3)cn2)cn1 [Example 792, N-(4-((2-(1,1-difluoroethyl)-6-methylpyrimidin-4-yl)amino)-5-(5-((4-methylpiperazin-1-yl)methyl)pyrazin-2-yl)pyridin-2-yl)acetamide] | ≤ 10 | 10 to 100 | – | – | –
